Measurements taken from paper PMC3823594, “Conformational Changes Underlying Pore Dilation in the Cytoplasmic Domain of Mammalian Inward Rectifier K^+ Channels” (PLoS ONE, 2013).

Key:
Assay in all cases: Two-electrode voltage clamp, ACh-dependent (m2R-dependent) K+ current activation
Assay type in all cases: cell-based, mouse
Kir3.2 M313Q = Kir3.2 M313Q with porcine m2R in Xenopus oocytes; −120 mV; Hill equation fit
From the text: (§1) The mouse Kir3.2d isoform was subjected to functional analyses. The amino acid numbers correspond to the longest mouse Kir3.2 isoform. Point mutations were introduced using the QuikChange site-directed mutagenesis kit (Stratagene, La Jolla, CA), and the presence of the mutations was confirmed by direct DNA sequencing. The care of Xenopus laevis was in accordance with the guideline of the Institute of Experimental Animal Sciences, Osaka University. The protocol was approved by the Animal Experiment Committee of Osaka University. The frogs were deeply anesthetized by immersing in 0.2% tricaine methanesulfonate for 20 min at 18°C. A portion of an ovary lobe was surgically removed and incubated with collagenase to remove follicular cells. The oocytes were injected with the cRNAs of Kir3.2 and porcine m2-muscarinic receptor (m2R), and maintained in modified Barth’s solution at 18°C with daily solution changes. Electrophysiological studies were undertaken 48–72 h later at room temperature (20–25°C). Two-electrode voltage-clamp recordings from oocytes were performed using a GeneClamp 500B amplifier (Axon Instruments, Sunnyvale, CA). […] The bath solution contained 40 mM KCl, 50 mM NaCl, 3 mM MgCl2, 0.15 mM niflumic acid, and 5 mM HEPES-KOH (pH 7.4). The currents were recorded in the absence or presence of various concentrations of acetylcholine (ACh). Ba^2+ (3 mM) was added at the end of the recording to estimate the endogenous leak current. The data are expressed as mean values ± standard error of the mean. For the quantitative estimation of ACh-dependent current responses of the wild-type (WT) and mutant channels, the current amplitudes at the end of test pulses at each ACh concentration ([ACh]) were fitted using the following equation:
(§2) I=min+[(max−min)/(1+(EC50/[ACh])^nH)]
(§3) where I is the current amplitude measured at the [ACh], n H is the Hill coefficient, and EC50 is the concentration that induces 50% of the maximal response. […] The values of n H and EC50 were calculated using a non-linear least-squares best fit (SigmaPlot 9; Systat Software). Statistical analyses were performed by one-way ANOVA with post-hoc tests.

Kir3.2 M313D = Kir3.2 M313D with porcine m2R in Xenopus oocytes; −120 mV; Hill equation fit, min not zero
From the text: as §1, §2, §3

Kir3.2 E236R = Kir3.2 E236R with m2R in Xenopus oocytes; various concentrations of ACh; end of test pulse to −120 mV
From the text: The mouse Kir3.2d isoform was subjected to functional analyses. The amino acid numbers correspond to the longest mouse Kir3.2 isoform. Point mutations were introduced using the QuikChange site-directed mutagenesis kit (Stratagene, La Jolla, CA), and the presence of the mutations was confirmed by direct DNA sequencing. The care of Xenopus laevis was in accordance with the guideline of the Institute of Experimental Animal Sciences, Osaka University. The protocol was approved by the Animal Experiment Committee of Osaka University. The frogs were deeply anesthetized by immersing in 0.2% tricaine methanesulfonate for 20 min at 18°C. […] The currents were recorded in the absence or presence of various concentrations of acetylcholine (ACh). […] The data are expressed as mean values ± standard error of the mean. For the quantitative estimation of ACh-dependent current responses of the wild-type (WT) and mutant channels, the current amplitudes at the end of test pulses at each ACh concentration ([ACh]) were fitted using the following equation: […]
Figure 6 Introduction of reverse charge at position 236 of Kir3.2. […] Typical current traces of the E236R mutant recorded in the presence of various concentrations of ACh are shown. […] The current amplitudes at the end of the test pulse were normalized to that recorded at -100 mV. […]

SMILES: CC(=O)OCC[N+](C)(C)C [ACh, acetylcholine]
- EC50 (Kir3.2 M313Q): 50 ± 5 nM
- Hill coefficient (Kir3.2 M313Q): 0.81 ± 0.04
- EC50 (Kir3.2 M313D): 130 ± 10 nM
- Hill coefficient (Kir3.2 M313D): 0.73 ± 0.06
- Sensitivity of whole-cell K+ current to m2R-stimulation (Kir3.2 E236R): insensitive
